# Legend:
# human V1a receptor = target: T1, human V1a receptor (Homo sapiens, UniProt P37288); assay: Cellular in vitro assay for determining vasopressin receptor activity, V1a receptor cell line (CHO, aequorin luminescence); type: cell-based; settings: for IC50: CHO cell line transfected with human V1a receptor, [Arg]-vasopressin at EC50 concentration, read-out: IC50 hV1a; for ratio IC50 hV2/hV1a: selectivity ratio IC50 hV2 / IC50 hV1a
# T1 construct: expressed in transfected cells; host or cells: CHO K1 (ATCC), also stably transfected with a modified aequorin
# Procedure, shortened: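 CHO K1/aequorin cells, coelenterazine 5 μg/ml o/n; cpd 10 min; [Arg]-vasopressin at EC50; luminescence read immediately; IC50.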
# human V2 receptor = target: T2, human V2 receptor (Homo sapiens, UniProt P30518); assay: Cellular in vitro assay for determining vasopressin receptor activity, V2 receptor cell line (CHO, CRE-luciferase); type: cell-based; settings: CHO cell line transfected with human V2 receptor; [Arg8]-vasopressin at EC50 concentration; read-out: IC50 hV2
# T2 construct: expressed in transfected cells; host or cells: CHO K1 (ATCC) expressing firefly luciferase under a CRE-responsive promoter
# T2 sequence (P30518 whole entry): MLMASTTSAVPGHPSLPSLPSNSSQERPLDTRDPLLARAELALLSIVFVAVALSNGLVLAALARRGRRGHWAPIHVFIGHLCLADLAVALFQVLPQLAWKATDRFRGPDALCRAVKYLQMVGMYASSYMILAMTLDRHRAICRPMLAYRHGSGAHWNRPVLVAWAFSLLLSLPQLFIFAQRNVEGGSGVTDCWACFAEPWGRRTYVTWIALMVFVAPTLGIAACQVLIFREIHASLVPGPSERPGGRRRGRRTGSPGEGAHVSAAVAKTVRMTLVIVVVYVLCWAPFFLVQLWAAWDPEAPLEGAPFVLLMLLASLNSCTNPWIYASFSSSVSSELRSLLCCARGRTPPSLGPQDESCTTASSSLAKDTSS
# T1 sequence (P37288 whole entry): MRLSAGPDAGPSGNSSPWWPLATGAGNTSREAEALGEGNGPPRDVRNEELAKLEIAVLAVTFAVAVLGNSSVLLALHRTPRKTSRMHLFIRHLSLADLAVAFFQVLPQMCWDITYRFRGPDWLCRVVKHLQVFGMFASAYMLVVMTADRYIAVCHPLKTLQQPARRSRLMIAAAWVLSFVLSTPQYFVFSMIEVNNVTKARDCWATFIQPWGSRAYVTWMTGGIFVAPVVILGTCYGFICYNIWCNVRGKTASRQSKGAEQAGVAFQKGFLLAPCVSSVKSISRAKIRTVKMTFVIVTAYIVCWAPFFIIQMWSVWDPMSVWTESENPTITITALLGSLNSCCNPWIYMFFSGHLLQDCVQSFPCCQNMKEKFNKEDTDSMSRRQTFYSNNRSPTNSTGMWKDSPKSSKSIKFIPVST
SMILES,IC50 (human V1a receptor) [µM],ratio IC50 hV2/hV1a (human V1a receptor),IC50 (human V2 receptor) [µM]
"O=C(NC1CC(F)(F)C1)c1cccc(Cl)c1-n1cnc(Cn2nc(-c3ccc(Cl)cc3)n(C[C@@H](O)C(F)(F)F)c2=O)n1 [Example 399, 3-Chloro-2-[3-({3-(4-chlorophenyl)-5-oxo-4-[(2R)-3,3,3-trifluoro-2-hydroxypropyl]-4,5-dihydro-1H-1,2,4-triazol-1-yl}methyl)-1H-1,2,4-triazol-1-yl]-N-(3,3-difluorocyclobutyl)benzamide]",0.19,16.6,3.15
"O=C(c1cccc(Cl)c1-n1cnc(Cn2nc(-c3ccc(Cl)cc3)n(C[C@@H](O)C(F)(F)F)c2=O)n1)N1CCCCC1 [Example 401, 5-(4-Chlorophenyl)-2-({1-[2-chloro-6-(piperidin-1-ylcarbonyl)phenyl]-1H-1,2,4-triazol-3-yl}methyl)-4-[(2R)-3,3,3-trifluoro-2-hydroxypropyl]-2,4-dihydro-3H-1,2,4-triazol-3-one]",0.24,41.5,9.95
"O=C(c1cccc(Cl)c1-n1cnc(Cn2nc(-c3ccc(Cl)cc3)n(C[C@@H](O)C(F)(F)F)c2=O)n1)N1CCOCC1 [Example 402, 2-({1-[2-Chloro-6-(morpholin-4-ylcarbonyl)phenyl]-1H-1,2,4-triazol-3-yl}methyl)-5-(4-chlorophenyl)-4-[(2R)-3,3,3-trifluoro-2-hydroxypropyl]-2,4-dihydro-3H-1,2,4-triazol-3-one]",0.435,73.6,32
"O=C(NC1(C(F)(F)F)CC1)c1cccc(Cl)c1-n1cnc(Cn2nc(-c3ccc(Cl)cc3)n(C[C@@H](O)C(F)(F)F)c2=O)n1 [Example 403, 3-Chloro-2-[3-({3-(4-chlorophenyl)-5-oxo-4-[(2R)-3,3,3-trifluoro-2-hydroxypropyl]-4,5-dihydro-1H-1,2,4-triazol-1-yl}methyl)-1H-1,2,4-triazol-1-yl]-N-[1-(trifluoromethyl)cyclopropyl]benzamide]",0.0745,77.9,5.8
"O=C(c1cccc(Cl)c1-n1cnc(Cn2nc(-c3ccc(Cl)cc3)n(C[C@@H](O)C(F)(F)F)c2=O)n1)N1CCC[C@@H]1C(F)(F)F [Example 404, 5-(4-Chlorophenyl)-2-{[1-(2-chloro-6-{[(2R)-2-(trifluoromethyl)pyrrolidin-1-yl]carbonyl}phenyl)-1H-1,2,4-triazol-3-yl]methyl}-4-[(2R)-3,3,3-trifluoro-2-hydroxypropyl]-2,4-dihydro-3H-1,2,4-triazol-3-one]",0.315,36.5,11.5
"CC1(NC(=O)c2cccc(Cl)c2-n2cnc(Cn3nc(-c4ccc(Cl)cc4)n(C[C@@H](O)C(F)(F)F)c3=O)n2)CC1 [Example 405, 3-Chloro-2-[3-({3-(4-chlorophenyl)-5-oxo-4-[(2R)-3,3,3-trifluoro-2-hydroxypropyl]-4,5-dihydro-1H-1,2,4-triazol-1-yl}methyl)-1H-1,2,4-triazol-1-yl]-N-(1-methylcyclopropyl)benzamide]",0.0165,615.2,10.1
"CC1(C)COCCN1C(=O)c1cccc(Cl)c1-n1cnc(Cn2nc(-c3ccc(Cl)cc3)n(C[C@@H](O)C(F)(F)F)c2=O)n1 [Example 407, 2-[(1-{2-Chloro-6-[(3,3-dimethylmorpholin-4-yl)carbonyl]phenyl}-1H-1,2,4-triazol-3-yl)methyl]-5-(4-chlorophenyl)-4-[(2R)-3,3,3-trifluoro-2-hydroxypropyl]-2,4-dihydro-3H-1,2,4-triazol-3-one]",0.425,75.3,32
"NC(=O)[C@H]1CC(F)(F)CN1C(=O)c1cccc(Cl)c1-n1cnc(Cn2nc(-c3ccc(Cl)cc3)n(C[C@@H](O)C(F)(F)F)c2=O)n1 [Example 409, 1-{3-Chloro-2-[3-({3-(4-chlorophenyl)-5-oxo-4-[(2R)-3,3,3-trifluoro-2-hydroxypropyl]-4,5-dihydro-1H-1,2,4-triazol-1-yl}methyl)-1H-1,2,4-triazol-1-yl]benzoyl}-4,4-difluoro-D-prolinamide]",0.18,177.8,32
"O=C(NCCC(F)(F)F)c1cccc(Cl)c1-n1cnc(Cn2nc(-c3ccc(Cl)cc3)n(C[C@@H](O)C(F)(F)F)c2=O)n1 [Example 410, 3-Chloro-2-[3-({3-(4-chlorophenyl)-5-oxo-4-[(2R)-3,3,3-trifluoro-2-hydroxypropyl]-4,5-dihydro-1H-1,2,4-triazol-1-yl}methyl)-1H-1,2,4-triazol-1-yl]-N-(3,3,3-trifluoropropyl)benzamide]",0.325,10.2,3.3
"O=C(c1cccc(Cl)c1-n1cnc(Cn2nc(-c3ccc(Cl)cc3)n(C[C@H](O)C(F)(F)F)c2=O)n1)N1CC2(COC2)C1 [Example 411, 2-({1-[2-Chloro-6-(2-oxa-6-azaspiro[3.3]hept-6-ylcarbonyl)phenyl]-1H-1,2,4-triazol-3-yl}methyl)-5-(4-chlorophenyl)-4-[(2S)-3,3,3-trifluoro-2-hydroxypropyl]-2,4-dihydro-3H-1,2,4-triazol-3-one]",0.365,13.3,4.85
"O=C(NCC(F)(F)F)c1cccc(C(F)(F)F)c1-n1cnc(Cn2nc(-c3ccc(Cl)cc3)n(C[C@H](O)C(F)(F)F)c2=O)n1 [Example 412, 2-[3-({3-(4-Chlorophenyl)-5-oxo-4-[(2S)-3,3,3-trifluoro-2-hydroxypropyl]-4,5-dihydro-1H-1,2,4-triazol-1-yl}methyl)-1H-1,2,4-triazol-1-yl]-N-(2,2,2-trifluoroethyl)-3-(trifluoromethyl)benzamide]",0.14,14.3,2
"CC1(NC(=O)c2cccc(C(F)(F)F)c2-n2cnc(Cn3nc(-c4ccc(Cl)cc4)n(C[C@H](O)C(F)(F)F)c3=O)n2)CC1 [Example 414, 2-[3-({3-(4-Chlorophenyl)-5-oxo-4-[(2S)-3,3,3-trifluoro-2-hydroxypropyl]-4,5-dihydro-1H-1,2,4-triazol-1-yl}methyl)-1H-1,2,4-triazol-1-yl]-N-(1-methylcyclopropyl)-3-(trifluoromethyl)benzamide]",0.0445,80.9,3.6
"O=C(NC1CC1)c1cccc(C(F)(F)F)c1-n1cnc(Cn2nc(-c3ccc(Cl)cc3)n(C[C@H](O)C(F)(F)F)c2=O)n1 [Example 415, 2-[3-({3-(4-Chlorophenyl)-5-oxo-4-[(2S)-3,3,3-trifluoro-2-hydroxypropyl]-4,5-dihydro-1H-1,2,4-triazol-1-yl}methyl)-1H-1,2,4-triazol-1-yl]-N-cyclopropyl-3-(trifluoromethyl)benzamide]",0.0535,28.0,1.5
"COC[C@H]1CCCN1C(=O)c1cccc(C(F)(F)F)c1-n1cnc(Cn2nc(-c3ccc(Cl)cc3)n(C[C@H](O)C(F)(F)F)c2=O)n1 [Example 416, 5-(4-Chlorophenyl)-2-({1-[2-{[(2R)-2-(methoxymethyl)pyrrolidin-1-yl]carbonyl}-6-(trifluoromethyl)phenyl]-1H-1,2,4-triazol-3-yl}methyl)-4-[(2S)-3,3,3-trifluoro-2-hydroxypropyl]-2,4-dihydro-3H-1,2,4-triazol-3-one]",0.0515,113.6,5.85
"O=C(NC1CC(F)(F)C1)c1cccc(C(F)(F)F)c1-n1cnc(Cn2nc(-c3ccc(Cl)cc3)n(C[C@H](O)C(F)(F)F)c2=O)n1 [Example 417, 2-[3-({3-(4-Chlorophenyl)-5-oxo-4-[(2S)-3,3,3-trifluoro-2-hydroxypropyl]-4,5-dihydro-1H-1,2,4-triazol-1-yl}methyl)-1H-1,2,4-triazol-1-yl]-N-(3,3-difluorocyclobutyl)-3-(trifluoromethyl)benzamide]",0.0375,8.4,0.315
"O=C(c1cccc(C(F)(F)F)c1-n1cnc(Cn2nc(-c3ccc(Cl)cc3)n(C[C@H](O)C(F)(F)F)c2=O)n1)N1CCS(=O)(=O)CC1 [Example 418, 5-(4-Chlorophenyl)-2-[(1-{2-[(1,1-dioxidothiomorpholin-4-yl)carbonyl]-6-(trifluoromethyl)phenyl}-1H-1,2,4-triazol-3-yl)methyl]-4-[(2S)-3,3,3-trifluoro-2-hydroxypropyl]-2,4-dihydro-3H-1,2,4-triazol-3-one]",0.635,50.4,32
"O=C(NCC1CC1)c1cccc(C(F)(F)F)c1-n1cnc(Cn2nc(-c3ccc(Cl)cc3)n(C[C@H](O)C(F)(F)F)c2=O)n1 [Example 419, 2-[3-({3-(4-Chlorophenyl)-5-oxo-4-[(2S)-3,3,3-trifluoro-2-hydroxypropyl]-4,5-dihydro-1H-1,2,4-triazol-1-yl}methyl)-1H-1,2,4-triazol-1-yl]-N-(cyclopropylmethyl)-3-(trifluoromethyl)benzamide]",0.096,10.7,1.02
"O=C(NCCC(F)(F)F)c1cccc(C(F)(F)F)c1-n1cnc(Cn2nc(-c3ccc(Cl)cc3)n(C[C@H](O)C(F)(F)F)c2=O)n1 [Example 421, 2-[3-({3-(4-Chlorophenyl)-5-oxo-4-[(2S)-3,3,3-trifluoro-2-hydroxypropyl]-4,5-dihydro-1H-1,2,4-triazol-1-yl}methyl)-1H-1,2,4-triazol-1-yl]-3-(trifluoromethyl)-N-(3,3,3-trifluoropropyl)benzamide]",0.022,16.8,0.37

# Reference: US11173151B2, “Substituted triazole derivatives and uses thereof” (BAYER AKTIENGESELLSCHAFT, priority 2017, dated 2021)
